# Data from US7786141B2 (Vertex Pharmaceuticals Incorporated, priority 2004, dated 2010).
# Legend:
# [1] = molecular target: T1, M1 muscarinic receptor (Homo sapiens, UniProt P11229); assay: Functional mobilization of intracellular calcium (FLIPR) in M1-CHO cells; type: cell-based; conditions: for Emax: 100% efficacy is the maximum response obtained with the Carbachol control; for M1 Activity: M1 receptor, calcium mobilization (FLIPR); for EC50: CHO cells expressing M1, calcium mobilization
# T1 construct: expressed in transfected cells; host or cells: CHO (M1-CHO)
# T1 sequence (P11229 1-460): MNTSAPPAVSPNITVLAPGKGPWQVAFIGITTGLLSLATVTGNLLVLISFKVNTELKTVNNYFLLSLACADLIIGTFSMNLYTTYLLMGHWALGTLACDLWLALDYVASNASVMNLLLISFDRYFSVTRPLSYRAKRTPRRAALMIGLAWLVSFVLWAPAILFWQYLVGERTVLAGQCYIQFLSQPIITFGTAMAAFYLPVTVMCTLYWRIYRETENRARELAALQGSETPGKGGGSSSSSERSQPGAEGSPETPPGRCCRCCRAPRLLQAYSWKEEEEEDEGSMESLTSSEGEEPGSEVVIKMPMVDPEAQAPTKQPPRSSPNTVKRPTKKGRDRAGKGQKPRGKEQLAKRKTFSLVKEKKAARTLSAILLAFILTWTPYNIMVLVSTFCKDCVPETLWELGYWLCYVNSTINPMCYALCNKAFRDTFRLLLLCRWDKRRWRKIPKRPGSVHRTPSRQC
# Method in brief: (§1)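 Measured via Fluo-3 fluorescence on a FLIPR, CHO cells with either muscarinic subtype received compound in 0.5% DMSO. Antagonism was assessed after 15 min pre-incubation followed by carbachol at each subtype's EC80; agonism from compound addition alone.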
# [2] = molecular target: T2, M4 muscarinic receptor (Homo sapiens, UniProt P08173); assay: Functional mobilization of intracellular calcium (FLIPR) in M4-CHO cells; type: cell-based; conditions: for Emax: 100% efficacy is the maximum response obtained with the Carbachol control; for M4 Activity: M4 receptor, calcium mobilization (FLIPR); for EC50: CHO cells expressing M4, calcium mobilization
# T2 construct: expressed in transfected cells; host or cells: CHO (M4-CHO)
# T2 sequence (P08173 1-479): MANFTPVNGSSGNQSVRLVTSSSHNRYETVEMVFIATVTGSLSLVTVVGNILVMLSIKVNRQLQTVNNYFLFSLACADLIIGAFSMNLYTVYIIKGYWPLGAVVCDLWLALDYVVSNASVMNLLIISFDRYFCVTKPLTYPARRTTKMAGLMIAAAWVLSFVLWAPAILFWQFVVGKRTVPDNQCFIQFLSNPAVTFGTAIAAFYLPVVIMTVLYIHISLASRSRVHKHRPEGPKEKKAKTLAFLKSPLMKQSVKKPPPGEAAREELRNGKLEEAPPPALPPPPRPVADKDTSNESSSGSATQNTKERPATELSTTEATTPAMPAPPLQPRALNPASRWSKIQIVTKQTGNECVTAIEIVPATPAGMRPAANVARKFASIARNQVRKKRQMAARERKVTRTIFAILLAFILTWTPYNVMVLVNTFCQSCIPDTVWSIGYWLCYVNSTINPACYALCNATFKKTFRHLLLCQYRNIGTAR
# Method in brief: as §1
smiles,measurement,setting,value
CCOC(=O)N1C2CCC1CC(N1CCC3(CC[C@H](N4CCCC4=O)c4ccccc43)CC1)C2 (stereo partly drawn) [compound 1014],Emax,[1]; Table 4,25 to 100%
same,M1 Activity,[1]; Table 4,xxx (activity was measured to be less than 2.0 μM)
same,Emax,[2]; Table 4,25 to 100%
same,M4 Activity,[2]; Table 4,xxx (activity was measured to be less than 2.0 μM)
CC(=O)N1CC2(CCN(C[C@@H]3CCN(C(=O)OCC(F)F)C3)CC2)c2ccccc21 [compound 1015],Emax,[1]; Table 4,25 to 100%
same,M1 Activity,[1]; Table 4,xx (activity was measured to be between 2.0 μM and 5.0 μM)
same,Emax,[2]; Table 4,< 25%
same,M4 Activity,[2]; Table 4,xxx (activity was measured to be less than 2.0 μM)
CCCC(=O)N[C@H]1CC2(CCN(C[C@@H]3C[C@H]4C=CC3C4)CC2)c2ccccc21 [compound 1016],Emax,[1]; Table 4,25 to 100%
same,M1 Activity,[1]; Table 4,xxx (activity was measured to be less than 2.0 μM)
same,Emax,[2]; Table 4,25 to 100%
same,M4 Activity,[2]; Table 4,xxx (activity was measured to be less than 2.0 μM)
CCCC(=O)N[C@H]1CC2(CCN([C@@H]3CC4CC[C@@H]3C4)CC2)c2ccccc21 [compound 1017],Emax,[1]; Table 4,25 to 100%
same,M1 Activity,[1]; Table 4,x (activity was measured to be greater than 5.0 μM)
same,Emax,[2]; Table 4,25 to 100%
same,M4 Activity,[2]; Table 4,xxx (activity was measured to be less than 2.0 μM)
CC(=O)N1CC2(CCN(C3CCN(c4nccs4)CC3)CC2)c2cc(F)ccc21 [compound 1019],Emax,[1]; Table 5,25 to 100%
same,EC50,[1]; Table 5,< 2 µM
same,Emax,[2]; Table 5,25 to 100%
same,EC50,[2]; Table 5,< 2 µM
CC(=O)N1CC2(CCN(C3CCC4(CC3)CC(C)=NO4)CC2)c2cc(F)ccc21 (stereo not drawn) [compound 1020],Emax,[1]; Table 5,25 to 100%
same,EC50,[1]; Table 5,2 to 10 µM
same,Emax,[2]; Table 5,< 25%
same,EC50,[2]; Table 5,2 to 10 µM
CN(C)C(=O)N1CC2(CCN(C3CCN(c4ccccc4F)CC3)CC2)c2cc(F)ccc21 [compound 1024],Emax,[1]; Table 5,25 to 100%
same,EC50,[1]; Table 5,2 to 10 µM
same,Emax,[2]; Table 5,< 25%
same,EC50,[2]; Table 5,2 to 10 µM
CN(C)C(=O)N1CC2(CCN(C3CCN(c4cccc(F)c4)CC3)CC2)c2cc(F)ccc21 [compound 1025],Emax,[1]; Table 5,25 to 100%
same,EC50,[1]; Table 5,2 to 10 µM
same,Emax,[2]; Table 5,25 to 100%
same,EC50,[2]; Table 5,< 2 µM
CN(C)C(=O)N1CC2(CCN(C3CCN(c4ccc(F)cc4)CC3)CC2)c2cc(F)ccc21 [compound 1026],Emax,[1]; Table 5,25 to 100%
same,EC50,[1]; Table 5,2 to 10 µM
same,Emax,[2]; Table 5,< 25%
same,EC50,[2]; Table 5,< 2 µM
COc1ccccc1N1CCC(N2CCC3(CC2)CN(C(=O)N(C)C)c2ccc(F)cc23)CC1 [compound 1027],Emax,[1]; Table 5,25 to 100%
same,EC50,[1]; Table 5,2 to 10 µM
same,Emax,[2]; Table 5,25 to 100%
same,EC50,[2]; Table 5,2 to 10 µM
COc1cccc(N2CCC(N3CCC4(CC3)CN(C(=O)N(C)C)c3ccc(F)cc34)CC2)c1 [compound 1028],Emax,[1]; Table 5,25 to 100%
same,EC50,[1]; Table 5,2 to 10 µM
same,Emax,[2]; Table 5,25 to 100%
same,EC50,[2]; Table 5,< 2 µM
COc1ccc(N2CCC(N3CCC4(CC3)CN(C(=O)N(C)C)c3ccc(F)cc34)CC2)cc1 [compound 1029],Emax,[1]; Table 5,25 to 100%
same,EC50,[1]; Table 5,2 to 10 µM
same,Emax,[2]; Table 5,25 to 100%
same,EC50,[2]; Table 5,2 to 10 µM
COc1ccc(F)cc1N1CCC(N2CCC3(CC2)CN(C(=O)N(C)C)c2ccc(F)cc23)CC1 [compound 1030],Emax,[1]; Table 5,25 to 100%
same,EC50,[1]; Table 5,2 to 10 µM
same,Emax,[2]; Table 5,25 to 100%
same,EC50,[2]; Table 5,2 to 10 µM
CN(C)C(=O)N1CC2(CCN(C3CCN(c4cnccn4)CC3)CC2)c2cc(F)ccc21 [compound 1031],Emax,[1]; Table 5,25 to 100%
same,EC50,[1]; Table 5,< 2 µM
same,Emax,[2]; Table 5,25 to 100%
same,EC50,[2]; Table 5,< 2 µM
CN(C)C(=O)N1CC2(CCN(C3CCN(c4ncccn4)CC3)CC2)c2cc(F)ccc21 [compound 1032],Emax,[1]; Table 5,25 to 100%
same,EC50,[1]; Table 5,2 to 10 µM
same,Emax,[2]; Table 5,25 to 100%
same,EC50,[2]; Table 5,< 2 µM
CN(C)C(=O)N1CC2(CCN(C3CCN(c4cncnc4)CC3)CC2)c2cc(F)ccc21 [compound 1033],Emax,[1]; Table 5,25 to 100%
same,EC50,[1]; Table 5,2 to 10 µM
same,Emax,[2]; Table 5,25 to 100%
same,EC50,[2]; Table 5,< 2 µM
CN(C)C(=O)N1CC2(CCN(C3CCN(c4nccs4)CC3)CC2)c2cc(F)ccc21 [compound 1034],Emax,[1]; Table 5,25 to 100%
same,EC50,[1]; Table 5,< 2 µM
same,Emax,[2]; Table 5,25 to 100%
same,EC50,[2]; Table 5,< 2 µM
CN(C)C(=O)N1CC2(CCN(C[C@H]3CCN(c4cnccn4)C3)CC2)c2cc(F)ccc21 [compound 1035],Emax,[1]; Table 5,> 100%
same,EC50,[1]; Table 5,< 2 µM
same,Emax,[2]; Table 5,25 to 100%
same,EC50,[2]; Table 5,< 2 µM
CN(C)C(=O)N1CC2(CCN(C[C@@H]3CCN(c4cnccn4)C3)CC2)c2cc(F)ccc21 [compound 1036],Emax,[1]; Table 5,25 to 100%
same,EC50,[1]; Table 5,< 2 µM
same,Emax,[2]; Table 5,25 to 100%
same,EC50,[2]; Table 5,< 2 µM
CN(C)C(=O)N1CC2(CCN(C[C@H]3CCN(c4nccs4)C3)CC2)c2cc(F)ccc21 [compound 1037],Emax,[1]; Table 5,25 to 100%
same,EC50,[1]; Table 5,2 to 10 µM
same,Emax,[2]; Table 5,25 to 100%
same,EC50,[2]; Table 5,< 2 µM
CN(C)C(=O)N1CC2(CCN(C[C@@H]3CCN(c4nccs4)C3)CC2)c2cc(F)ccc21 [compound 1038],Emax,[1]; Table 5,25 to 100%
same,EC50,[1]; Table 5,2 to 10 µM
same,Emax,[2]; Table 5,25 to 100%
same,EC50,[2]; Table 5,< 2 µM
CN(C)C(=O)N1CC2(CCN(C3CCN(c4ccccn4)CC3)CC2)c2cc(F)ccc21 [compound 1039],Emax,[1]; Table 5,25 to 100%
same,EC50,[1]; Table 5,2 to 10 µM
same,Emax,[2]; Table 5,25 to 100%
same,EC50,[2]; Table 5,< 2 µM
CN(C)C(=O)N1CC2(CCN(C3CCN(c4cccnc4)CC3)CC2)c2cc(F)ccc21 [compound 1040],Emax,[1]; Table 5,25 to 100%
same,EC50,[1]; Table 5,< 2 µM
same,Emax,[2]; Table 5,25 to 100%
same,EC50,[2]; Table 5,< 2 µM
CN(C)C(=O)N1CC2(CCN(C3CCN(c4ccsc4)CC3)CC2)c2cc(F)ccc21 [compound 1041],Emax,[1]; Table 5,25 to 100%
same,EC50,[1]; Table 5,2 to 10 µM
same,Emax,[2]; Table 5,25 to 100%
same,EC50,[2]; Table 5,2 to 10 µM
